The target of one assay is baNadD (Bacillus anthracis, UniProt C3L5T6). Kind of assay: biochemical. The format is biochemical. The following applies: for inhibition at 50 µM: read-out: INHIBITION (%) B. anthracis.
Another assay concerns the target ecNadD (Escherichia coli (strain K12), UniProt P0A752). Kind of assay: biochemical. Type of assay: biochemical. The conditions noted are these: for inhibition at 100 µM: read-out: INHIBITION (%) E. coli; for IC50: IC50 ecNadD.

The inhibition is how much of the control response was suppressed. In general, IC50 refers to the concentration that gives 50% inhibition.

Read-outs that look alike come from different tables or passages of the source.

baNadD, sequence (C3L5T6 whole entry, looked up): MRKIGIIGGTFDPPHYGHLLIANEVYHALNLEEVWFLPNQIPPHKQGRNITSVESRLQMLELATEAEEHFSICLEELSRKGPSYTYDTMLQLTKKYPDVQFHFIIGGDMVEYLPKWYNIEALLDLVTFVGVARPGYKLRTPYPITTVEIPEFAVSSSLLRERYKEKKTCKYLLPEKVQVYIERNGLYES

In the case of `NS(=O)(=O)c1ccc2nc(NC(=O)c3ccncc3)sc2c1` [compound 059], the “[…]. anthracis” value at baNadD came out at 0%. The “[…]. coli” value on ecNadD was determined as 15%.
Taken in the same sequence, the figures for `CCn1c(CNc2ccc(F)cc2)nnc1SCC(N)=O` [compound 298] were 0% and 0%.
Turning to `COc1ccc(N/C=C2\C(=O)Nc3ccccc32)cc1` [15_25], on baNadD, the inhibition at 50 µM turned out to be 16%. Further, the inhibition at 100 µM at ecNadD is 9%.
Taken in the same sequence, the figures for `O=C(CCC(=O)Nc1cccc(Br)c1)N/N=C/c1ccc(I)cc1` [01_17] were 35% and 41%.
As to `O=C(O)c1cccc(-n2nc(O)ccc2=O)c1` [compound 166], the “[…]. anthracis” value at baNadD is on record as 19%. Besides, at ecNadD, the “[…]. coli” value came to 4%.
Regarding `O=c1[nH]c(SCc2nc3ccccc3[nH]2)nc2ccccc12` [compound 026], at baNadD, the “[…]. anthracis” value is listed as 0%. In addition, the “[…]. coli” value at ecNadD stood at 23%.
On to `O=C1Nc2ccccc2/C1=C/Nc1ccc(F)cc1` [15_06], for which the inhibition at 50 µM on baNadD came to 49%. Also, the inhibition at 100 µM at ecNadD stood at 15%.
For `Cc1ccc(NC(=O)CCC(=O)N/N=C/c2cccc(Br)c2)cc1` [01_08] the same measures were 74% and 75%.
As for `O=C(CCC(=O)Nc1cccc(Br)c1)N/N=C/c1c2ccccc2cc2ccccc12` [01_01], the IC50 at baNadD (read-out: IC50 baNadD) was 4 µM. The inhibition at 50 µM on baNadD is 81%. For the same molecule, on ecNadD, the IC50 is 6 µM and the inhibition at 100 µM is 90%.
With `O=C(CCC(=O)Nc1ccc(Br)cc1)N/N=C/c1ccc(F)cc1` [01_15], the IC50 on baNadD (read-out: IC50 baNadD) amounted to 122 µM. Further, the inhibition at 50 µM at baNadD worked out at 22%. At ecNadD, the inhibition at 100 µM is 47%.
With `Cc1ccc(NS(=O)(=O)c2coc(C(N)=O)c2)cc1F` [compound 243], the “[…]. anthracis” value at baNadD was found to be 0%. Further, on ecNadD, the “[…]. coli” value was 0%.
As to `CC(=O)O/C(=C\c1cn(C(C)=O)c2ccccc12)C(=O)O` [compound 291], the “[…]. anthracis” value at baNadD worked out at 0%. The “[…]. coli” value at ecNadD is on record as 0%.
In the case of `CC(=NNC(=O)COc1ccc(C)cc1)C(=O)O` [compound 182], the “[…]. anthracis” value at baNadD is on record as 14%. In addition, on ecNadD, the “[…]. coli” value was 3%.
For the molecule `NS(=O)(=O)c1ccc(NC(=S)NCCc2c[nH]c3ccccc23)cc1` [compound 206], the “[…]. anthracis” value on baNadD is 25%. In addition, at ecNadD, the “[…]. coli” value was found to be 0%.
For `Cc1ccc(S(=O)(=O)/N=C(/NCC(=O)O)c2ccccc2)cc1` [compound 211] the same measures were 42% and 0%.
For `CCCCN(C(C)=O)c1ccc(C(=O)O)cc1` [compound 114] the same measures were 0% and 8%.
For `O=C(Nc1ncccc1Cl)c1ccc(Br)cc1` [compound 137] the same measures were 7% and 6%.
`O=C(O)c1ccc(CSCc2ccccc2)o1` [compound 270]: at baNadD, the “[…]. anthracis” value stood at 21%. The “[…]. coli” value at ecNadD worked out at 0%.
In the case of `O=C(CCC(=O)Nc1ccccc1Cl)NN=Cc1ccc(C=NNC(=O)CCC(=O)Nc2ccccc2Cl)cc1` [1—02—1, N-(2-Chloro-phenyl)-3-(4-{[3-(2-chloro-phenylcarbamoyl)-propionyl]-hydrazonomethyl}-benzylidene-hydrazinocarbonyl)-propionamide], on baNadD, the “baNadD inhibition (qualitative)” value is “effective”; the “improvement in activity compared to precursors 1_13 and 1_15” value is “more than 10 fold”. For the same molecule, at ecNadD, the “ecNadD inhibition (qualitative)” value is “effective” and the IC50 is 13 ± 2 µM.
With `Nc1nc(-c2cccc(Br)c2)cs1` [compound 232], the “[…]. anthracis” value on baNadD is 12%. The “[…]. coli” value at ecNadD worked out at 0%.
Taken in the same sequence, the figures for `CC(=O)NC(=S)Nc1ccc(Cl)c(Cl)c1` [compound 244] were 0% and 0%.
On to `O=C(CSc1nc2ccccc2[nH]1)Nc1nncs1` [compound 197], for which the “[…]. anthracis” value on baNadD was 34%. For the same molecule, the “[…]. coli” value at ecNadD was found to be 0%.
For `CC(=O)c1cccc(N/C=C2\C(=O)Nc3ccccc32)c1` [15_35], the inhibition at 50 µM on baNadD stood at 19%. Further, the inhibition at 100 µM on ecNadD stood at 4%.
On to `O=S(=O)(N/N=C/c1cccc(OC2CSC2)c1)c1ccccc1` [compound 292], for which the “[…]. anthracis” value at baNadD worked out at 0%. Further, the “[…]. coli” value on ecNadD is reported as 0%.
Turning to `O=C(O)C1C2C=CC(C2)C1C(=O)Nc1ccc(Cl)c(Cl)c1` (stereo not drawn) [compound 152], the “[…]. anthracis” value at baNadD worked out at 0%. Further, the “[…]. coli” value at ecNadD is listed as 5%.
For `COC(=O)c1ccc(NC(=O)CNc2ccc(C(=O)O)cc2)cc1` [compound 258] the same measures were 0% and 0%.
Taken in the same sequence, the figures for `O=C(CSc1nnc[nH]1)Nc1ccc(I)cc1` [compound 129] were 0% and 7%.
Taken in the same sequence, the figures for `O=C(O)c1ccc(-c2ccccc2F)o1` [compound 234] were 0% and 0%.
For `Nc1c(C(=O)Nc2ccc(Cl)cc2)sc2nc(-c3ccncc3)ccc12` [03_29], on baNadD, the inhibition at 50 µM turned out to be 0%. Also, the inhibition at 100 µM at ecNadD turned out to be 0%.
For `Cc1cc(C)cc(N/C=C2\C(=O)Nc3ccccc32)c1` [15_23], at baNadD, the inhibition at 50 µM is 32%. Further, at ecNadD, the inhibition at 100 µM came out at 10%.
In the case of `O=C(Nc1ncccn1)c1sc2ccccc2c1Cl` [compound 011], the “[…]. anthracis” value at baNadD amounted to 0%. Also, at ecNadD, the “[…]. coli” value is listed as 31%.
As to `CS(=O)(=O)N(CC(=O)Nc1ccccc1Br)c1ccc(Cl)cc1` [compound 163], the “[…]. anthracis” value at baNadD was 54%. The “[…]. coli” value on ecNadD is on record as 4%.
For `NS(=O)(=O)c1ccc(NC(=O)CSc2ccc3ccccc3n2)cc1` [compound 073] the same measures were 0% and 12%.
With `Cc1ccc(F)cc1NC(=O)CSCC(=O)O` [compound 025], the “[…]. anthracis” value at baNadD worked out at 55%. Besides, the “[…]. coli” value at ecNadD is on record as 23%.
Taken in the same sequence, the figures for `O=C(NCc1ccccn1)c1ccc(Cl)cc1Cl` [compound 294] were 0% and 0%.
Taken in the same sequence, the figures for `NS(=O)(=O)c1ccc(NC(=S)NCc2ccccc2)cc1` [compound 085] were 0% and 11%.
For `Nc1c(C(=O)Nc2c(Cl)cccc2Cl)sc2nc(-c3cccnc3)ccc12` [03_20], the IC50 against baNadD (IC50 baNadD) and on ecNadD was greater than 200 µM each time. Besides, on baNadD, the inhibition at 50 µM is 11%. Further, the inhibition at 100 µM on ecNadD stood at 24%.
For `O=C(CCC(=O)Nc1ccc(Br)cc1)N/N=C/c1cccc(Br)c1` [01_13], at baNadD (read-out: IC50 baNadD), the IC50 was determined as 170 µM. Besides, the inhibition at 50 µM at baNadD amounted to 29%. Moreover, the inhibition at 100 µM on ecNadD worked out at 67%.
`O=C(CSc1nc2ccccc2o1)Nc1nncs1` [compound 229]: at baNadD, the “[…]. anthracis” value came out at 0%. Moreover, the “[…]. coli” value on ecNadD came to 0%.
Take `Br.Cn1ccnc1SCC(=O)c1ccccc1` [compound 113]: the “[…]. anthracis” value on baNadD came out at 12%. For the same molecule, on ecNadD, the “[…]. coli” value turned out to be 8%.
Molecule `Nc1c(C(=O)Nc2cccc(Cl)c2)sc2nc(-c3ccc(F)cc3)ccc12` [03_16] showed an IC50 against baNadD (IC50 baNadD) of 35 µM. Also, the inhibition at 50 µM at baNadD is 83%. Besides, on ecNadD, the IC50 was found to be 50 µM and the inhibition at 100 µM was 46%.
Regarding `Nc1nnnn1/N=C/c1ccccc1` [compound 278], the “[…]. anthracis” value at baNadD turned out to be 0%. On ecNadD, the “[…]. coli” value is 0%.
In the case of `O=S(=O)(NCc1cccs1)c1ccc(Br)cc1` [compound 188], the “[…]. anthracis” value on baNadD came out at 0%. Moreover, the “[…]. coli” value on ecNadD is given as 1%.
Taken in the same sequence, the figures for `S=C(N/N=C/c1ccccc1Cl)Nc1cc(Cl)ccc1Cl` [compound 002] were 85% and 76%.
For `Brc1ccc2ncnc(NCc3cccnc3)c2c1` [compound 225] the same measures were 55% and 0%.
Taken in the same sequence, the figures for `NS(=O)(=O)c1ccc(NC(=O)CCc2ccccc2)cc1` [compound 081] were 0% and 11%.
Regarding `CCS(=O)(=O)n1nc(-c2ccc(OC)cc2)nc1N` [compound 149], the “[…]. anthracis” value on baNadD was 0%. Besides, the “[…]. coli” value at ecNadD came out at 5%.
Taken in the same sequence, the figures for `COc1cc(OC)cc(-c2cn[nH]c2N)c1` [compound 090] were 0% and 10%.
For `O=C(O)c1nccnc1C(=O)Nc1ccc(Br)cc1` [compound 031] the same measures were 4% and 21%.
Taken in the same sequence, the figures for `CCC(NS(=O)(=O)c1ccc(OC)cc1)C(=O)O` (stereo not drawn) [compound 212] were 32% and 0%.
Regarding `N#CCc1ccc(NC(=O)/C=C/c2ccc([N+](=O)[O-])o2)cc1` [compound 233], the “[…]. anthracis” value on baNadD was 8%. Further, the “[…]. coli” value on ecNadD amounted to 0%.
For `Cc1c(NC(=O)CSS(=O)(=O)O)c(=O)n(-c2ccccc2)n1C` [compound 023] the same measures were 34% and 24%.
For `NS(=O)(=O)c1ccc(CCNC(=O)COc2ccc(Cl)cc2Cl)cc1` [compound 101] the same measures were 0% and 9%.
As to `Cc1ccc(C)c(N/C=C2\C(=O)Nc3ccccc32)c1` [15_04], the inhibition at 50 µM on baNadD is 26%. The inhibition at 100 µM at ecNadD is 18%.
As for `O=C(CCC(=O)Nc1cccc(Br)c1)N/N=C/c1cccc(Br)c1` [01_10], the inhibition at 50 µM on baNadD was determined as 53%. Also, the inhibition at 100 µM on ecNadD came to 72%.
As to `NC(N)=NS(=O)(=O)c1ccc(NC(=O)c2cccc([N+](=O)[O-])c2)cc1` [compound 268], the “[…]. anthracis” value on baNadD is reported as 0%. Besides, the “[…]. coli” value on ecNadD worked out at 0%.
Turning to `N#CC1=C(N)OC(c2cccs2)=C(C#N)C1c1cccs1` (stereo not drawn) [compound 019], the “[…]. anthracis” value at baNadD is reported as 27%. For the same molecule, the “[…]. coli” value at ecNadD is reported as 26%.
Taken in the same sequence, the figures for `O=c1[nH]c2ccc(NC(=S)Nc3ccccc3)cc2[nH]1` [compound 083] were 0% and 11%.

These data come from patent US8785499B2 (priority 2009, dated 2014).
